Results from patent publication US8257696B2, “Indefinite culture of human adult glia without immortalization and therapeutic uses thereof” (University of Florida Research Foundation, Inc., priority 2004, dated 2012).
“Also recorded” adds a separate entry of the source.

Assays:
Type in all cases: cell-based, human
[1] = test system: high passage cells (HES astroglia); experiment: Senescence-associated β-galactosidase (SA-β-gal) expression after growth arrestors; conditions: evaluated 7 days after addition, 1 μg/ml aphidicolin or 20 μM EGCG, vs age-matched controls
Procedure: Primary tissue was gathered from individuals undergoing surgery related to medically intractable temporal lobe epilepsy. Primary tissue was removed and stored overnight in ice-cold DMEM/F-12 medium containing 20 mg/ml penicillin, […] streptomycin., and 25 ng/ml amphotericin B (collectively 1× antibiotics). Hippocampus (containing hilus) and temporal cortex (not containing subventricular zone) were microdissected from biopsied tissue samples (n=4, data presented from person). Dissected tissues were placed in 1× phosphate buffered saline (PBS, pH 7.3) lacking CaCl2 or MgCl2, and were manually dissociated into 1 mm^3 pieces under sterile conditions. Tissues were collected and resuspended in 0.005% trypsin (15 min, 37° C., pH 7.3), and were further triturated using restricted bore pipetting. Cells were collected, resuspended in proliferative media, and seeded onto uncoated T75 culture flasks overnight (12 hr, 37° C., 5% humidified CO2). […] Cells were dissociated with 0.005% trypsin, counted (using trypan dye exclusion as viability criteria), and were replated onto uncoated 60 mm plastic dishes. […] To assess viability of cells in various growth conditions, equal numbers of culture-matched cells were seeded into triplicate wells of various proliferative conditions, and counted 7, 14, and 21 days later. […] Significance (p<0.05) was calculated using a student's t-test. […]

[2] = test system: high passage cells (HES astroglia); experiment: Growth rate by cell counting after reversible growth inhibitors and washout; conditions: for proliferation upon removal of growth inhibitors: after removal of inhibitor; for rate of cellular proliferation (growth rate): high passage cells, measured 7 days after addition
Procedure: Primary tissue was gathered from individuals undergoing surgery related to medically intractable temporal lobe epilepsy. Primary tissue was removed and stored overnight in ice-cold DMEM/F-12 medium containing 20 mg/ml penicillin, […] streptomycin., and 25 ng/ml amphotericin B (collectively 1× antibiotics). Hippocampus (containing hilus) and temporal cortex (not containing subventricular zone) were microdissected from biopsied tissue samples (n=4, data presented from person). Dissected tissues were placed in 1× phosphate buffered saline (PBS, pH 7.3) lacking CaCl2 or MgCl2, and were manually dissociated into 1 mm^3 pieces under sterile conditions. Tissues were collected and resuspended in 0.005% trypsin (15 min, 37° C., pH 7.3), and were further triturated using restricted bore pipetting. Cells were collected, resuspended in proliferative media, and seeded onto uncoated T75 culture flasks overnight (12 hr, 37° C., 5% humidified CO2). Unattached cells were collected and seeded onto uncoated 60 mm plastic dishes in proliferative media. Proliferative media was comprised of DMEM/F-12 containing N2 supplements, 35 μg/ml bovine pituitary extract, 1× antibiotics, 5% fetal calf serum (FCS), and 40 ng/ml of EGF and FGF. 20 ng of EGF and FGF were supplemented twice daily. When necessary, media was changed every fourth day. Cells were frozen in aliquots of 1 million cells in DMEM/F-12 containing 10% FCS and 20% dimethyl sulfoxide (v/v). Cells were passaged 1:2 when confluent. Cells were dissociated with 0.005% trypsin, counted (using trypan dye exclusion as viability criteria), and were replated onto uncoated 60 mm plastic dishes. For growth monitoring experiments, 1 μg/ml aphidicolin or 20 μM EGCG were added to culture media 1 hour after plating. Irradiated cells were treated with a single 3 Gy dose of X-irradiation. Following the period of application, cells were washed in 1×PBS and were resuspended in proliferative media or fixed. To assess viability of cells in various growth conditions, equal numbers of culture-matched cells were seeded into triplicate wells of various proliferative conditions, and counted 7, 14, and 21 days later. For growth factor analysis, EGF and/or FGF were removed for seven days, and surviving cells were returned to proliferative media. Significance (p<0.05) was calculated using a student's t-test. In vitro images of cultured cells were captured using a Nikon Eclipse TS-100 bright field microscope and a Spot 3.1 digital camera (Diagnostic Instruments).
Isolation and Culture of Tissue: Primary tissue was gathered from individuals undergoing surgery related to medically intractable temporal lobe epilepsy. […]

TERT = experiment: Telomerase (TERT) expression after growth arrest; conditions: high passage cells, measured 7 days after addition
Procedure: Cells were plated on coverslips coated with poly-L-lysine or polyornithine and laminin and grown to confluency in proliferative media. Cells were fixed with 4% paraformaldehyde ([…], 25° C.). After washing with PBS, cells were blocked 20 min in PBS containing 10% FCS, 5% normal goat serum, and 0.01% Triton X-100. Primary antibodies were applied for either 1 hour at 25° C. or overnight at 4° C. in PBS containing 10% FCS and 0.01% Triton X-100. Primary antibodies: β III tubulin (mouse monoclonal, 1:300, Promega), BrdU (mouse monoclonal, 1:50, Becton-Dickinson), CNPase (mouse monoclonal, 1:250, Chemicon), GFAP (rabbit polyclonal, 1:600, DAKO), glutamine synthetase (rabbit polyclonal, 1:100, AbCam), map2a-c (chicken polyclonal, 1:30,000), nestin (mouse monoclonal, 1:50, Chemicon), O4 (mouse monoclonal IgM, 1:150, Chemicon), S100-β (rabbit polyclonal, 1:100, Swant), telomerase (rabbit polyclonal, 1:200, Santa Cruz). Secondary antibodies were applied for 45 min at 25° C. in PBS containing 10% FCS and 0.01% Triton X-100. […] SA-βGal expression was assessed 7 days after addition of growth arrestors as described (Dimri, G. P. et al. Proc Nat'l Acad Sci U S A 92, 9363-7 (1995)). […] Fluorescence microscopy was performed on a Leica DMLB upright microscope and images were captured with a Spot RT Color CCD camera (Diagnostic Instruments). […]

C[C@@]1(CO)[C@H](O)CC[C@@]2(C)[C@H]1CC[C@H]1C[C@@H]3C[C@@]12CC[C@]3(O)CO [aphidicolin]
SA-β-gal expression [1]: marked increase in SA-β-Gal; also recorded: significantly higher levels of SA-β-gal than age-matched controls
proliferation upon removal of growth inhibitors [2]: return to previous levels of proliferation
rate of cellular proliferation (growth rate) [2]: lose their ability to proliferate in culture
TERT (telomerase) expression (TERT): continue to express telomerase

epigallocatechin-3-gallate [EGCG]
SA-β-gal expression [1]: marked increase in SA-β-Gal; also recorded: express SA-β-Gal
proliferation upon removal of growth inhibitors [2]: return to previous levels of proliferation
rate of cellular proliferation (growth rate) [2]: lose their ability to proliferate in culture; also recorded: significantly reduced; also recorded: significant reduction
TERT (telomerase) expression (TERT): continue to express telomerase; also recorded: remained detectable; also recorded: remained ubiquitous
